The results in this text go back to patent US5866377A, “Aminooligosaccharide derivative and process for preparing the same” (Chong Kun Dang Corporation, priority 1994, dated 1999).

One series can be described thus: Solubility. Type of series: physicochemical. The source says:
soluble in water and ethanol insoluble in benzene and normal hexane

Series [1] has as its system Comamonas terrigena(ATCG 8461). The series is described as follows: Antibacterial activity, paper disc method, Gram-negative strain. It is filed as cell-based. To be noted: 1 mg/ml sample, read-out: inhibitory zone. As for the experimental part: To four of 500 ml Erlenmeyer flasks was addled 100 ml of a medium for seed culture(pH 6.5) containing glucose 1 (w/v) %, dextrin 1 (w/v) %, NZ-amine(type A) 0.5 (w/v) %, yeast extract 0.5 (w/v) % and calcium carbonate 0.1 (w/v) %, and sterilized at 120° C. for 15 min. 1 platinum loop of slant culture of Streptomyces sp. CK-4416 which was obtained from a subculture, was inoculated to each of four flasks and incubated under shaking at 27° C. for 3 days. Then, 100 ml of culture media(pH 6.5) containing soluble starch 3 (w/v) %, soybean powder 1.5 (w/v) %, corn steep liquor 1.5 (w/v) %, polypeptone 0.2 (w/v) %, Na2 S2 O3 0.1 (w/v) %, calcium carbonate 0.5 (w/v) %, cobalt chloride 0.0001 (w/v) % was added to 200 of 500 ml Erlenmeyer flasks and sterilized at 120° C. for 30 min. 2 (v/v) % of seed culture was inoculated to the media and incubated at 27° C. for 3 days under shaking at 240 rpm. CK-4416 was quantitatively assayed by the determination of antimicrobial activity employing a test organism Comamonas terrigena(ATCC 8461) in accordance with conventional paper disc method. After 3 days culture, pH and yield were determined as 7.2 and 0.06 mg/ml, respectively.
(§1) Antibacterial activities for Gram-positive and negative bacterial strains were determined with 1 mg/ml of CK-4416 sample, by employing paper disc method.

The target of the next series is amylase. The series is described as follows: Inhibition of amylase activity. Particulars: 0.25M phosphate buffer pH 7.0, starch substrate, 37° C., absorbance at 660 nm; 30 min; read-out: half(50%) inhibition ratio for amylase activity(IC50). It is filed as biochemical. The procedure:
An enzyme solution(hereinafter referred to as `solution A`) containing amylase dissolved in 0.25M phosphate buffer(pH 7.0), 0.25M phosphate buffer solution(pH 7.0)(hereinafter referred to as `solution B`) and 0.04 (w/v) % starch solution (hereinafter referred to as `solution C`) were prepared, respectively. Then, 0.05 ml of solution B containing CK-4416 dissolved in solution B, 0.1 ml of solution B and 0.05 ml of solution B were combined to incubate at 37° C. for 5 min, and further incubated for 30 min after the addition of 0.5 ml of solution C. After […], absorbance at 660 nm was deter-mined for CK-4416 sample(T) and control(C) which is free of sample.
Inhibition ratio=(C-T)/C×100

In a further series the test system is blood glucose level. The series is described as follows: Lowering of sugar level in blood after oral starch load. Type of series: in vivo. To be noted: male SD rats fasted 12 hrs, 1 hr after administration, glucose oxidase method. The procedure: To two groups of 5 male SD rats fasted for 12 hrs, 1.5 g/kg of starch was orally administered, concurrently with 40 mg/kg and 80 mg/kg of samples. Then, blood was taken from the rats after 1 hr from administration, and glucose level in blood was determined by glucose oxidase method and compared with control group which has not taken the CK-4416 sample.

The nature of series [2]: Acidic, neutral or basic properties. It is filed as physicochemical. The source says: 13. Acidic, neutral or basic properties:
Series [3] has as its system Gram-positive bacterial strains. Kind of series: Antibacterial activity, paper disc method, Gram-positive strains. It is filed as cell-based. To be noted: 1 mg/ml sample. As for the experimental part:
as §1

Regarding `OCC1OC(OC2C(CO)OC(OC3C(CO)OC(OC4C(CO)OC(OC5C(CO)OC(O)C(O)C5O)C(O)C4O)C(O)C3O)C(O)C2O)C(O)C(O)C1NC1C(O)C(O)C(O)C2(CO)OC12` (single isomer, unassigned) [CK-4416], the Solubility entry in the series “Solubility” (in benzene and normal hexane) is listed as “insoluble”; in “Solubility” (in water and ethanol), “soluble”. Also, in series [1], the zone of inhibition at 1000 µg/mL is 24.8 mm. Also, at amylase, the IC50 stood at 1600 nM. For the same compound, the Blood glucose level worked out at 97.5 ± 14.3 in the series with blood glucose level (40 mg/kg oral with 1.5 g/kg starch) and 87.5 ± 11.3 in the series with blood glucose level (80 mg/kg oral with 1.5 g/kg starch). In addition, in series [2], the “Acidic, neutral or basic properties” value is on record as “weakly basic”. Further, the Antibacterial activity entry in series [3] is “no activity”.
